Experimental data taken from US20080039410A1, “Inositol 1,4,5-Trisphosphate Receptor Mutants and Uses Thereof” (priority 2004, published 2008).
“Also recorded” adds a separate entry of the source. Read-outs that look alike come from different tables or passages of the source.

How the values were obtained:
S2− InsP3R-1 [1] = experiment: CCh concentration-response of Ca2+ release in Dt-40 3ko cells expressing m3R and S2− InsP3R-1 constructs; type: cell-based, rat; details: for maximum peak Δ response to CCh: Fura-2 340/380 ratio; for fold change from WT (CCh EC50): S2 − InsP3R-1 constructs, Table 2; for EC50: fit of normalized initial peak, read-out: EC50 for CCh-induced Ca^2+ release
Excerpt: The rat S2^+ InsP3R-1 in the expression plasmid pIRES-GFP was digested with the restriction endonuclease SalI. The overhang created by digestion was blunted by using T4 polymerase. An EcoRI linker was then ligated onto the blunted ends of the construct. The entire receptor DNA was excised from the plasmid using EcoRI and ligated into the plasmid MXT-1. The region containing the S2^− splice variant and potential PKA phosphorylation sites was excised from its backbone in pCDNA 3.1+ by RsrII and KasI and ligated into the InsP3R construct in MXT-1. The potential PKA phosphorylation sites Ser-1589 and Ser-1755 were mutated, individually in both splice variants and together in the S2^− splice variant, to alanines or glutamates by using sequential PCR mutagenesis. The outside primers used for the mutagenesis reaction flanked the restriction sites RsrII and KasI. Following mutation, the resulting fragments were cut with RsrII and KasI and inserted into the InsP3R-1 backbone at the corresponding sites. The mutations were confirmed by Big Dye fluorescent sequencing. Mutated receptor DNAs were excised from MXT-1 by using EcoRI and ligated into the mammalian expression vector pGW (provided by Dr. David Yue, Johns Hopkins University). Orientation was confirmed by using restriction enzyme digestion. Mutants were named based on the splice variant, either S2+ or S2− followed by the amino acid present at position 1589 and 1755. Thus, a mutation in S2^+ InsP3R-1 S1755E is designated, “S2+SE,” and in InsP3R-1 […] S1755A is designated “S2^−SA”. Similarly, an S2− InsP3R-1 with mutations in both S1589E and S1755E is designated “S2−EE”. The numbering of residues is based on the full-length rat InsP3R-1.
Dt-40 cells lacking all three InSP3 receptor subtypes were transfected by using electroporation at 350 V and 950 microfarads (4-mm gap cuvette). 2×10^7 cells were co-transfected with 25 μg of the InsP3R-1 cDNA, 25 μof the muscarinic type 3 (m3R) receptor DNA, and 4 μg of the red fluorescent protein plasmid pHcRed1-N1 (Clontech). Cells were incubated with DNA in 500 μl of Opti-MEM media (Invitrogen) on ice for 10 min. The cell/DNA mixture was electroporated, incubated on ice for 30 min, increased to 5 ml with Opti-MEM, and placed in a 5% CO2 incubator at 39° C. for 5 h. The cells were then centrifuged and resuspended in 12 ml of complete RPMI media (Invitrogen). Transfection efficiency was typically ˜20%. Experiments were performed within 32 h of transfection.
Transfected Dt-40 3ko cells were washed once in a HEPES-buffered physiological saline solution (HEPES-PSS) containing (in mM) 5.5 glucose, 137 NaCl, 0.56 MgCl2, 4.7 KCl, 1 Na2HPO4, 10 HEPES (pH 7.4), 1.2 CaCl2, and 1% w/v bovine serum albumin. Cells were then resuspended in bovine serum albumin HEPES-PSS with 1 μM Fura-2 (AM), placed on a 15-mm glass coverslip in a low volume perfusion chamber, and allowed to adhere for 30 min at room temperature. Cells were perfused continuously for 10 min with HEPES-PSS before experimentation to allow complete Fura-2 de-esterification. A field of cells for each experiment was chosen that contained a wide range of transfection efficiency based upon the intensity of red fluorescence emitted when excited at 560 nm. Individual cells that had emission gray levels between 1500 and 2500 were subsequently chosen to standardize expression levels. [Ca^2+]i imaging was performed essentially as described previously by using an inverted epifluorescence Nikon microscope with a 40× oil immersion objective lens (numerical aperture, 1.3) (100). Cells were excited alternately with light at 340 and 380±10 nm bandpass filters (Chroma, Rockingham, Vt.) using a monochrometer (TILL Photonics, Pleasanton, Calif.). Fluorescence images were captured and digitized with a digital camera driven by TILL Photonics software. Images were captured every 2 s with an exposure of 2 ms and 4 by 4 binning. 340/380 ratio images were calculated online and stored immediately to a hard disk. […]

S2− InsP3R-1 [2] = experiment: Phosphorylation of Ser-1755 after forskolin in transfected HEK-293 cells (immunoprecipitation, Western blot); type: cell-based, rat; details: 20 μM forskolin 10 min, α-phospho-Ser-1755 blot
Method: HEK-293 cells were plated onto 25-cm^2 culture flasks and allowed to grow to near-confluency. Cells were transfected with 5 μg of each S2− InsP3R-1 DNA construct by using the LipofectAMINE reagent (Invitrogen) as per the manufacturer's instructions. The following day, batches of cells were treated in the presence or absence of 20 μM forskolin for 10 min, aspirated from flasks, lysed, and immunoprecipitated with a polyclonal α-InsP3R-1 antibody that recognizes amino acids 2731-2749 of InsP3R-1. Immunoprecipitates were separated on 5% SDS gels transferred to nitrocellulose and then probed with either the α-InsP3R-1 antibody or a polyclonal antibody that recognizes the phosphorylated state of Ser-1755 (39) (α-phospho-Ser-1755), kindly provided by Dr. S. Snyder. Blots that were probed with a-phospho-Ser-1755were stripped and reprobed with the α-InsP3R-1 antisera to confirm the presence and relative quantity of the InsP3R-1.
The enhanced apparent sensitivity of individual phosphomimetic mutants was essentially equal and intermediate between the sensitivity of the S2−WT and S2−EE mutations. […] To address this possibility directly, experiments were performed evaluating the effects of activating endogenous PKA in cells expressing S2−SE or S2−ES to mimic prior phosphorylation of an individual site. […] To test this, experiments were performed to determine the phosphorylation state of the various mutants after raising cAMP levels. These experiments were performed in HEK-293 cells because of the high transfection efficiency and low endogenous levels of InsP3R-1 (47, 99). […] Following incubation of the lysates with α-InsP3R-1 antibody, the immune complexes were captured and separated on SDS gels, and the phosphorylation status of Ser-1755 was determined by Western blotting with an antibody that specifically recognizes this phosphorylated residue in InsP3R-1 (39).

[3] = listed as S1589E/S1755E mutant InsP3R-1

| Substance | maximal response in full CCh concentration-response curve (S2− InsP3R-1 [1]) | phosphorylation of Ser-1755 after forskolin (S2− InsP3R-1 [2]) | sensitivity of CCh-induced Ca^2+ release relative to other constructs (S2− InsP3R-1 [1]) | maximum peak Δ response to CCh (S2− InsP3R-1 [1]) | fold change from WT (CCh EC50) (S2− InsP3R-1 [1]) | EC50 (S2− InsP3R-1 [1]) | fold more sensitive than nonphosphorylatable S1589A/S1755A S2− InsP3R-1 (S2− InsP3R-1 [1]; listed as S2− mutant) | fold more sensitive than wild type S2− InsP3R-1 (CCh-induced Ca^2+ release) (S2− InsP3R-1 [1]; listed as S2− mutant) | fold more sensitive than nonphosphorylatable S1589A/S1755A S2− InsP3R-1 (S2− InsP3R-1 [1]; [3]) | fold more sensitive than wild type S2− InsP3R-1 (CCh-induced Ca^2+ release) (S2− InsP3R-1 [1]; [3]) | sensitivity of CCh-induced Ca^2+ release relative to other constructs (S2− InsP3R-1 [1]; [3]) | fold more sensitive than wild type S2− InsP3R-1 (CCh-induced Ca^2+ release) (S2− InsP3R-1 [1]) | phosphorylation of Ser-1755 after forskolin (S2− InsP3R-1 [2]; listed as S2−InsP3R-1) | phosphorylation of Ser-1755 after forskolin (S2− InsP3R-1 [2]; listed as wild type S2^−InsP3R-1) |
| --- | --- | --- | --- | --- | --- | --- | --- | --- | --- | --- | --- | --- | --- | --- |
| G1690A: InsP3R-1 S2− variant with glycine to alanine substitution at position 1690 (nucleotide binding site mutant) | comparable to that seen in the wild-type receptor | not susceptible to phosphorylation; also recorded: not phosphorylated |  |  |  |  |  |  |  |  |  |  |  |  |
| S2−EE: phosphomimetic S1589E/S1755E mutant of the short splice variant |  | no phosphorylation | greatest | 1.13+0.1 ratio units | 7.6 fold | 0.0043 µM | ~50 fold | 7.5 fold | approximately 35 fold | approximately 7.5 fold | markedly potentiated Ca^2+ release |  |  |  |
| S2−ES: phosphomimetic short splice variant S1589E |  | no phosphorylation; also recorded: lack of phosphorylation | intermediate sensitivity | 0.54±0.1 ratio units | 2.6 fold | 0.0124 ± 0.0005 µM |  |  |  |  |  | ~3 fold |  |  |
| S2−SE: phosphomimetic short splice variant of S1755E |  | no phosphorylation | intermediate sensitivity | 0.78±0.1 ratio units | 2.4 fold | 0.0135 ± 0.001 µM |  |  |  |  |  | ~3 fold |  |  |
| S2−WT: wild-type rat type-1 InsP3 receptor, peripheral short S2− splice variant (SEQ ID NO: 17) |  |  |  | 0.9±0.1 ratio units | 1 fold | 0.0326 ± 0.0075 µM |  |  |  |  |  |  | results in phosphorylation | robustly phosphorylated |
